Here are results for 1 sequence from publication PMC4557289, “Thymoproteasomes produce unique peptide motifs for positive selection of CD8^+ T cells” (Nature Communications, 2015).

Entries after “also recorded” stand apart in the source; their conditions may differ.

Test [1] has as its system OT-I TCR. Description: MHC-tetramer-binding assay (peptide/H-2K^b tetramers). The arrangement: species or system mouse. To be noted: peptide/H-2K^b tetramers on CD4/CD8 double-positive thymocytes from Tap1^−/− OT-I TCR-transgenic mice, 100 μM cytochalasin D, 37 °C, 90 min, flow cytometry; Fig. 6b; result in words. As for the experimental part:
CD4/CD8 double-positive thymocytes from Tap1^−/− OT-I TCR transgenic mice (6- to 8-week-old females) were stained with indicated peptide-K^b tetramers (MBL) in the presence of 100 μM cytochalasin D (Sigma-Aldrich) at 37 °C for 90 min (refs [31], [44]) and were analysed using flow cytometry.
(In general: A flow cytometer gives signals particle by particle.)

In test [2] the test system is OT-I TCR. The experiment in a line: CD4/CD8 dulling assay, OT-I thymocytes. The class given is cell-based, mouse. To be noted: thymocytes from Tap1^−/− OT-I TCR-transgenic mice (n=3) with peptide and irradiated B6-Ly5.1 splenocytes, 18 h, flow cytometry; Fig. 6c; result in words. As for the experimental part:
Dulling assay was performed as described[45][46] with minor modifications. Thymocytes from Tap1^−/− OT-I TCR transgenic mice were stimulated in the presence of peptides and irradiated splenocytes from B6-Ly5.1 mice (CD45.1^+CD45.2^−). Female mice at 6–8 weeks of age were used for experiments. After 18 h, thymocytes were stained with antibodies specific for CD4 (GK1.5), CD8 (53-6.7), CD45.1 (A20) and CD45.2 (104) and analysed using flow cytometry (antibodies were obtained from Biolegend and used at 10 μg ml^−1). Specific dulling of CD4 and CD8 expression induced by peptide stimulation was calculated as previously described.

Test [3] has as its system OT-I TCR. Description: agonist activity assay (T-cell stimulation, CD69), mature OT-I cells. The class given is cell-based, mouse. To be noted: splenocytes from Rag^−/− OT-I TCR transgenic mice (n=3), peptide 5 h, CD69 on CD8^+CD44^lo cells; Fig. 6d; result in words. The protocol:
Spleen cells from Rag1^−/− OT-I TCR transgenic mice (8-week-old females) were cultured in the presence of peptides for 5 h. CD69 expression on CD8^+CD44^lo cells was analysed using flow cytometry using anti-CD69 antibodies (H1.2F3; BD Pharmingen, 10 μg ml^−1).

Test [4] relates to thymus lobes from Tap1^−/− OT-I TCR transgenic mice. Description: fetal thymus organ culture (FTOC) of OT-I thymocytes. Type of test: cell-based, mouse. To be noted: E15 thymus lobes, peptide 20 μM, 3 days, result in words. The protocol: FTOC was essentially performed as described previously. Embryonic mice on day 15 of gestation were obtained from Tap1^−/− OT-I TCR transgenic mice. Thymus lobes were cultured on Isopore membrane filters (Millipore) placed on Gelfoam sponge (Pfizer) floated in medium. Peptides were added at a concentration of 20 μM. After 3 days in the culture, thymocytes were stained with antibodies specific for CD4 (GK1.5), CD8 (53-6.7) and Vα2 (B20.1) and analysed using flow cytometry; staining antibodies were obtained from Biolegend and were used at 10 μg ml^−1.

Test [5] concerns OT-I thymocytes. To be noted: known classification of OVAp and variants, Fig. 6a; cited from earlier work. The source says:
To examine whether these peptide features play roles in thymic selection, we employed the OVA-specific TCR transgenic line OT-I, which is the best-studied model of amino-acid substitution in MHC-associated peptides for thymic selection of functionally competent MHC-I-restricted T cells. […] We then tested OVAp variant peptides with tCP ... || Figure 6 OVAp peptide variants with tCP-dependent motifs show lower affinities to OT-I TCR. (a) List of OVAp variants used for assays in b–d and Fig. 7a,b. (b) Binding of peptide/H-2K^b tetramers to CD4/CD8 double-positive thymocytes from Tap1^−/− OT-I TCR-transgenic mice. (c) Dulling of CD4/CD8 co-receptors in OT-I thymocytes by OVAp variants. Thymocytes from Tap1^−/− OT-I TCR-transgenic mice (n=3) were stimulated in the presence of peptides at indicated concentrations and irradiated splenocytes from B6-Ly5.1 mice. (d) Activation of mature OT-I cells by OVAp variants. Splenocytes from Rag2^−/ ...

As for SIINFEKL [OVAp], the “affinity to OT-I TCR by MHC-tetramer-binding assay” value in test [1] is reported as “high affinity”. In addition, the “affinity to OT-I TCR by CD4/CD8 dulling assay” value in test [2] is listed as “high affinity”. Besides, the “affinity to OT-I TCR by agonist activity assay” value in test [3] is “high affinity”. For the same sequence, the “CD4/CD8 double-positive cells in FTOC” value in test [4] (Fig. 7a,b) is listed as “depletion of CD4/CD8 double-positive cells”. In addition, the “number of OT-I TCR^high (Vα2^high) CD8 single-positive thymocytes in FTOC, compared with unrelated peptide gp33” value in test [4] (Fig. 7b, n=3, Student's t-test) was “clear decrease”. In test [5], the “Effects on DP thymocytes (thymic selection of OT-I thymocytes)” value was “mediates negative selection; also recorded: Negative selector, original Ag”.
